Measurements as given in ChEMBL document CHEMBL3046401, “Synthesis, X-ray structure and antiproliferative activity of 3-benzylthio-4-propargylselenoquinoline” (2010).
≈ marks a conversion by molar mass, not a printed value.

Tests used:
Assay type in all cases: functional
Conditions in all cases: read-out: ID50 (the source's name)
A549 = assay: Antiproliferative activity against Homo sapiens (human) A549 cells by SRB assay
[1] = Antiproliferative activity against Homo sapiens (human) HCV29T cells by SRB assay
[2] = Antiproliferative activity against Homo sapiens (human) SW707 cells by SRB assay
T47D = assay: Antiproliferative activity against Homo sapiens (human) T47D cells by SRB assay

Row | SMILES | IC50 (A549) [µg/mL] | IC50 [1] [µg/mL] | IC50 [2] [µg/mL] | IC50 (T47D) [µg/mL]
1 | C#CC[Se]c1c(SCc2ccccc2)cnc2ccccc12 [3-BENZYLTHIO-4-PROPARGYLSELENOQUINOLINE] | > 100 | > 100 | > 100 | > 100
2 | C#CC[Se]c1c(SC)cnc2ccccc12 [3-METHYLTHIO-4-PROPARGYLSELENOQUINOLINE] |  | 1.8 (≈ 6.16 µM) | 0.6 (≈ 2.05 µM) | 2.5 (≈ 8.55 µM)
3 | C#CCSc1c(SC)cnc2ccccc12 [3-METHYLTHIO-4-PROPARGYLTHIOQUINOLINE] | 6.8 (≈ 27.7 µM) | 5.7 (≈ 23.2 µM) | 17.6 (≈ 71.7 µM) | 18.4 (≈ 75 µM)
